Data on 17 molecules can be found in patent US20160280699A1, “SUBSTITUTED PHENYLALANINE DERIVATIVES” (BAYER PHARMA AKTIENGESELLSCHAFT, priority 2013, published 2016).

The subject of one assay is human and animal plasma. The assay can be described thus: Determination of anticoagulatory activity: activated partial thromboplastin time (aPTT) in plasma. The format is biochemical. The settings on record: concentration of test substance which brings about a 1.5-fold extension of the aPTT, 37° C., C.K. Prest kit. On the procedure: The anticoagulatory activity of the test substances is determined in vitro in human and animal plasma (for example mouse, rat, rabbit, pig and dog plasma). To this end, blood is drawn off in a mixing ratio of sodium citrate/blood of 1:9 using a 0.11 molar sodium citrate solution as receiver. Immediately after the blood has been drawn off, it is mixed thoroughly and centrifuged at about 4000 g for 15 minutes. The supernatant is pipetted off.
The activated partial thromboplastin time (aPTT) is determined in the presence of varying concentrations of test substance or the corresponding solvent using a commercial test kit (C.K. Prest from Diagnostica Stago). The test compounds are incubated with the plasma and the PTT reagent (cephalin, kaolin) at 37° C. for 3 minutes. Coagulation is then started by addition of a 25 mM aqueous calcium chloride solution, and the time when coagulation occurs is determined. The concentration of test substance which brings about a 1.5-fold extension of the aPTT is determined Activity data from this test are listed in Table B below: […]

Another assay addresses T1, human factor XIa (Homo sapiens, UniProt P03951).
T1 construct: purchased Kordia
The assay can be described thus: Measurement of FXIa inhibition (fluorogenic peptide substrate Boc-Glu(OBzl)-Ala-Arg-AMC). The format is biochemical. The settings on record: factor XIa from Kordia, 15 min preincubation, 30 min at 22° C., fluorescence. On the procedure:
The factor XIa inhibition of the substances according to the invention is determined using a biochemical test system which utilizes the reaction of a peptidic factor XIa substrate to determine the enzymatic activity of human factor XIa. Here, factor XIa cleaves from the peptic factor XIa substrate the C-terminal aminomethylcoumarin (AMC), the fluorescence of which is measured. The determinations are carried out in microtitre plates.
Test substances are dissolved in dimethyl sulphoxide and serially diluted in dimethyl sulphoxide (3000 μM to 0.0078 μM; resulting final concentrations in the test: 50 μM to 0.00013 μM). In each case 1 μl of the diluted substance solutions is placed into the wells of white microtitre plates from Greiner (384 wells). Subsequently, the following are added successively: 20 μl of assay buffer (50 mmol/l Tris buffer pH 7.4; 100 mmol/l sodium chloride; 5 mmol/l calcium chloride; 0.1% bovine serum albumin) and 20 μl of factor XIa from Kordia (0.45 nM in assay buffer). After 15 min of incubation, the enzyme reaction is started by addition of 20 μl of the factor XIa substrate Boc-Glu(OBzl)-Ala-Arg-AMC dissolved in assay buffer (10 μM in assay buffer) from Bachem, the mixture is incubated at room temperature (22° C.) for 30 min and fluorescence is then measured (excitation: 360 nm, emission: 460 nm). The measured emissions of the test batches with test substance are compared to those of control batches without test substance (only dimethyl sulphoxide instead of test substance in dimethyl sulphoxide), and IC50 values are calculated from the concentration/activity relationships.

Counter-ions that a name gives are not always drawn.

T1 sequence (P03951 388-625 limits assumed): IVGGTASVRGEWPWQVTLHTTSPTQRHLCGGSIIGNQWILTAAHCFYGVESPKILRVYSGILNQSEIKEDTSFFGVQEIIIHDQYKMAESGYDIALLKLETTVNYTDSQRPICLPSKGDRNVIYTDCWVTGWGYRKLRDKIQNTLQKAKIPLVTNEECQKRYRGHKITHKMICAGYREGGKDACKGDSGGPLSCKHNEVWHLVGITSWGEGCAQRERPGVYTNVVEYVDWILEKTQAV
T1 sequence (P03951 19-387 partner limits assumed): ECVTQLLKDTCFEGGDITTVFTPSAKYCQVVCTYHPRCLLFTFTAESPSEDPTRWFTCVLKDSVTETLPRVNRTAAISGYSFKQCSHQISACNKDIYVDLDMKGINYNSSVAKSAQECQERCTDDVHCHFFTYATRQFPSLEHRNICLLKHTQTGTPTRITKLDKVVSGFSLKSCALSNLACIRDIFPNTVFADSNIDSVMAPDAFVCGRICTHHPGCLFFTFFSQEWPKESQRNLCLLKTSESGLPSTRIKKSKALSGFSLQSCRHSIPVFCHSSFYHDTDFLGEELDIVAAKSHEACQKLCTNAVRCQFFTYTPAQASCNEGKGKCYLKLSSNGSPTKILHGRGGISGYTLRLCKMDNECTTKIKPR

By IC50 is commonly meant the concentration needed to halve the response being measured. Read a high IC50 as weaker potency. As to `NC[C@H]1CC[C@H](C(=O)N[C@@H](Cc2ccc(-c3ccc(NCCN4CCOCC4)nc3)cc2)C(=O)Nc2ccc(-c3nn[nH]n3)cc2)CC1` [Example 16, N-alpha-{[trans-4-(Aminomethyl)cyclohexyl]carbonyl}-4-(6-{[2-(morpholin-4-yl)ethyl]amino}pyridin-3-yl)-N-[4-(2H-tetrazol-5-yl)phenyl]-L-phenylalaninamide hydrochloride], in the assay with human and animal plasma, the “aPTT” value was found to be 0.33 µmol/L. In addition, at human factor XIa, the IC50 amounted to 13 nM.

For `NC[C@H]1CC[C@H](C(=O)N[C@@H](Cc2ccc(-c3ccc(C(F)(F)F)nc3)cc2)C(=O)Nc2ccc(-c3nn[nH]n3)cc2)CC1` [Example 18, N-alpha-{[trans-4-(Aminomethyl)cyclohexyl]carbonyl}-N-[4-(2H-tetrazol-5-yl)phenyl]-4-[6-(trifluoromethyl)pyridin-3-yl]-L-phenylalaninamide hydrochloride], in the assay on human and animal plasma, the “aPTT” value came out at 0.33 µmol/L. In addition, at human factor XIa, the IC50 was 2.7 nM.

`CN(C)CCCOc1ccc(-c2ccc(C[C@H](NC(=O)[C@H]3CC[C@H](CN)CC3)C(=O)Nc3ccc(-c4noc(=O)[nH]4)cc3)cc2)cn1` [Example 19, N-alpha-{[trans-4-(Aminomethyl)cyclohexyl]carbonyl}-4-{6-[3-(dimethylamino)propoxy]pyridin-3-yl}-N-[4-(5-oxo-4,5-dihydro-1,2,4-oxadiazol-3-yl)phenyl]-L-phenylalaninamide hydrochloride]: the “aPTT” value in the assay on human and animal plasma was determined as 0.17 µmol/L. In addition, on human factor XIa, the IC50 came to 16 nM.

Consider `COc1cnccc1-c1ccc(C[C@H](NC(=O)[C@H]2CC[C@H](CN)CC2)C(=O)Nc2ccc(-c3nn[nH]n3)cc2)cc1` [Example 20, N-alpha-{[trans-4-(Aminomethyl)cyclohexyl]carbonyl}-4-(3-methoxypyridin-4-yl)-N-[4-(2H-tetrazol-5-yl)phenyl]-L-phenylalaninamide hydrochloride], for which the “aPTT” value in the assay with human and animal plasma came out at 0.22 µmol/L. This molecule also had an IC50 against human factor XIa of 3.8 nM.

For `COc1ccc(-c2ccc(C[C@H](NC(=O)[C@H]3CC[C@H](CN)CC3)C(=O)Nc3ccc(-c4nn[nH]n4)cc3)cc2)c(C)n1` [Example 21, N-alpha-{[trans-4-(Aminomethyl)cyclohexyl]carbonyl}-4-(6-methoxy-2-methylpyridin-3-yl)-N-[4-(2H-tetrazol-5-yl)phenyl]-L-phenylalaninamide hydrochloride], the “aPTT” value in the assay with human and animal plasma came out at 0.27 µmol/L. The molecule also registered an IC50 at human factor XIa of 1.3 nM.

Consider `CN(C)c1ncc(-c2ccc(C[C@H](NC(=O)[C@H]3CC[C@H](CN)CC3)C(=O)Nc3ccc(-c4nn[nH]n4)cc3)cc2)c(OCc2ccccc2)n1` [Example 22, N-alpha-{[trans-4-(Aminomethyl)cyclohexyl]carbonyl}-4-[4-(benzyloxy)-2-(dimethylamino)-pyrimidin-5-yl]-N-[4-(2H-tetrazol-5-yl)phenyl]-L-phenylalaninamide hydrochloride], for which the “aPTT” value in the assay on human and animal plasma came out at 0.27 µmol/L. 6.1 nM corresponded to half-maximal inhibition against human factor XIa (IC50).

In the case of `Cc1cnccc1-c1ccc(C[C@H](NC(=O)[C@H]2CC[C@H](CN)CC2)C(=O)Nc2ccc3c(=O)[nH][nH]c3c2)cc1` [Example 23, N-alpha-{[trans-4-(Aminomethyl)cyclohexyl]carbonyl}-4-(3-methylpyridin-4-yl)-N-(3-oxo-2,3-dihydro-1H-indazol-6-yl)-L-phenylalaninamide hydrochloride], the “aPTT” value in the assay on human and animal plasma is 0.24 µmol/L. Besides, on human factor XIa, the IC50 was 3.6 nM.

As for `NC[C@H]1CC[C@H](C(=O)N[C@@H](Cc2ccc(-c3ccc(N4CCOCC4)nc3)cc2)C(=O)Nc2ccc3c(=O)[nH][nH]c3c2)CC1` [Example 24, N-alpha-{[trans-4-(Aminomethyl)cyclohexyl]carbonyl}-4-[6-(morpholin-4-yl)pyridin-3-yl]-N-(3-oxo-2,3-dihydro-1H-indazol-6-yl)-L-phenylalaninamide hydrochloride], the “aPTT” value with human and animal plasma amounted to 0.18 µmol/L. This molecule showed an IC50 against human factor XIa of 3.1 nM.

`CN(C)c1ncc(-c2ccc(C[C@H](NC(=O)[C@H]3CC[C@H](CN)CC3)C(=O)Nc3ccc(-c4nn[nH]n4)cc3)cc2)cn1` [Example 25, N-alpha-{[trans-4-(Aminomethyl)cyclohexyl]carbonyl}-4-[2-(dimethylamino)pyrimidin-5-yl]-N-[4-(2H-tetrazol-5-yl)phenyl]-L-phenylalaninamide hydrochloride]: the “aPTT” value in the assay on human and animal plasma amounted to 0.29 µmol/L. This molecule also displayed an IC50 against human factor XIa of 8 nM.

Regarding `NC[C@H]1CC[C@H](C(=O)N[C@@H](Cc2ccc(-c3cccnc3N)cc2)C(=O)Nc2ccc(-c3nn[nH]n3)cc2)CC1` [Example 26, N-alpha-{[trans-4-(Aminomethyl)cyclohexyl]carbonyl}-4-(2-aminopyridin-3-yl)-N-[4-(2H-tetrazol-5-yl)phenyl]-L-phenylalaninamide hydrochloride], in the assay on human and animal plasma, the “aPTT” value stood at 0.19 µmol/L. Besides, the IC50 against human factor XIa stood at 3.7 nM.

Consider `Cc1ncccc1-c1ccc(C[C@H](NC(=O)[C@H]2CC[C@H](CN)CC2)C(=O)Nc2ccc3c(=O)[nH][nH]c3c2)cc1` [Example 27, N-alpha-{[trans-4-(Aminomethyl)cyclohexyl]carbonyl}-4-(2-methylpyridin-3-yl)-N-(3-oxo-2,3-dihydro-1H-indazol-6-yl)-L-phenylalaninamide hydrochloride], for which, in the assay with human and animal plasma, the “aPTT” value was found to be 0.24 µmol/L. At human factor XIa, this molecule gave an IC50 of 5.6 nM.

Turning to `Cc1cc(N2CCOCC2)ncc1-c1ccc(C[C@H](NC(=O)[C@H]2CC[C@H](CN)CC2)C(=O)Nc2ccc(-c3nn[nH]n3)cc2)cc1` [Example 29, N-alpha-{[trans-4-(Aminomethyl)cyclohexyl]carbonyl}-4-[4-methyl-6-(morpholin-4-yl)pyridin-3-yl]-N-[4-(2H-tetrazol-5-yl)phenyl]-L-phenylalaninamide hydrochloride], the “aPTT” value in the assay with human and animal plasma turned out to be 0.21 µmol/L. The IC50 against human factor XIa turned out to be 1.3 nM.

For `COc1ccc(-c2ccc(C[C@H](NC(=O)[C@H]3CC[C@H](CN)CC3)C(=O)Nc3ccc4c(=O)[nH][nH]c4c3)cc2)c(C)n1` [Example 30, N-alpha-{[trans-4-(Aminomethyl)cyclohexyl]carbonyl}-4-(6-methoxy-2-methylpyridin-3-yl)-N-(3-oxo-2,3-dihydro-1H-indazol-6-yl)-L-phenylalaninamide hydrochloride], the “aPTT” value in the assay on human and animal plasma was 0.34 µmol/L. In addition, the IC50 against human factor XIa came to 6.7 nM.

Regarding `COc1nc(N2CCN(C)CC2)ncc1-c1ccc(C[C@H](NC(=O)[C@H]2CC[C@H](CN)CC2)C(=O)Nc2ccc(-c3nn[nH]n3)cc2)cc1` [Example 31, N-alpha-{[trans-4-(Aminomethyl)cyclohexyl]carbonyl}-4-[4-methoxy-2-(4-methylpiperazin-1-yl)pyrimidin-5-yl]-N-[4-(2H-tetrazol-5-yl)phenyl]-L-phenylalaninamide hydrochloride], the “aPTT” value with human and animal plasma was found to be 0.22 µmol/L. At human factor XIa, this molecule showed a concentration for half-maximal inhibition (IC50) of 15 nM.

With `NC[C@H]1CC[C@H](C(=O)N[C@@H](Cc2ccc(-c3ccc(Oc4cccnc4)nc3)cc2)C(=O)Nc2ccc(-c3nn[nH]n3)cc2)CC1` [Example 32, N-alpha-{[trans-4-(Aminomethyl)cyclohexyl]carbonyl}-4-[6-(pyridin-3-yloxy)pyridin-3-yl]-N-[4-(2H-tetrazol-5-yl)phenyl]-L-phenylalaninamide hydrochloride], in the assay with human and animal plasma, the “aPTT” value is 0.3 µmol/L. Also, the IC50 against human factor XIa was found to be 2.4 nM.

Turning to `NC[C@H]1CC[C@H](C(=O)N[C@@H](Cc2ccc(-c3ccnc(N4CCNCC4)c3)cc2)C(=O)Nc2ccc(-c3nn[nH]n3)cc2)CC1` [Example 33, N-alpha-{[trans-4-(Aminomethyl)cyclohexyl]carbonyl}-4-[2-(piperazin-1-yl)pyridin-4-yl]-N-[4-(2H-tetrazol-5-yl)phenyl]-L-phenylalaninamide hydrochloride], in the assay with human and animal plasma, the “aPTT” value amounted to 0.29 µmol/L. The molecule also returned a concentration for half-maximal inhibition (IC50) on human factor XIa of 20 nM.

In the case of `NC[C@H]1CC[C@H](C(=O)N[C@@H](Cc2ccc(-c3ccc(N4CCOCC4)nc3)cc2)C(=O)Nc2ccc(-c3cc(=O)[nH][nH]3)cc2)CC1` [Example 34, N-alpha-{[trans-4-(Aminomethyl)cyclohexyl]carbonyl}-4-[6-(morpholin-4-yl)pyridin-3-yl]-N-[4-(5-oxo-2,5-dihydro-1H-pyrazol-3-yl)phenyl]-L-phenylalaninamide hydrochloride], the “aPTT” value with human and animal plasma worked out at 0.14 µmol/L. The same molecule yielded an IC50 on human factor XIa of 5.4 nM.
